# Source: patent US12122799B2, “Antibiotics for veterinary staphylococcal infections” (THE GEORGE WASHINGTON UNIVERSITY, A CONGRESSIONALLY …, priority 2018, dated 2024)
# Where two headings read alike, the source gives them in different places.
# Legend:
# [1] = test system: S. pseudintermedius; test: Growth inhibition of Staphylococcus species assay; assay type: cell-based; conditions: read-out: Bacterial IC50 (Mean ± SD) S.p.
# [2] = target: recombinant DXR enzyme; test: DXR enzyme activity assay; assay type: biochemical; conditions: recombinant S. chromogenes DXR, n=3; read-out: S. chromogenes IC50 (mean ± SD)
# [3] = target: recombinant DXR enzyme; test: DXR enzyme activity assay; assay type: biochemical; conditions: read-out: S. schleiferi IC50 (mean ± SD)
# [4] = test system: S. schleiferi; test: Growth inhibition of Staphylococcus species assay; assay type: cell-based; conditions: read-out: Bacterial IC50 (Mean ± SD) S.s.
# [5] = test system: S. chromogenes; test: Growth inhibition of Staphylococcus species assay; assay type: cell-based; conditions: read-out: Bacterial IC50 (Mean ± SD) S.c.
# [6] = test system: S. schleferi; assay type: cell-based, S. schleiferi
# [7] = test system: S. chromogenes; assay type: cell-based
# [8] = test system: P. falciparum; conditions: read-out: inhibition of P. falciparum growth IC50; cited from earlier work
# [9] = test system: S. pseudintermedius; assay type: cell-based
# [10] = test system: S. aureus; assay type: cell-based; conditions: read-out: Bacterial IC50 (Mean ± SD) S.a.
# [11] = S. schleiferi growth, LB media, 20 h, OD600
smiles,measurement,setting,value
COCOCOCOP(=O)(/C=C/CN(O)C=O)OCOCOCOC [JXW-573],IC50,"[1]; S. pseudintermedius growth, LB media, 20 h, OD600",0.21 ± 0.04 µM
same,IC50,[2],15.2 ± 2.36 µM
same,IC50,"[3]; recombinant S. schleiferi DXR, n=3",12.6 ± 1.88 µM
same,IC50,[4]; [11],0.03 µM
same,IC50,"[5]; S. chromogenes growth, LB media, 20 h, OD600",0.04 µM
CC(=O)N(O)C/C=C/P(=O)(OCOC(=O)c1ccccc1)OCOC(=O)c1ccccc1 [KMH-102],IC50,[4]; [11],0.21 ± 0.05 µM
CC(C)(C)C(=O)OCOP(=O)(/C=C/CN(O)C(=O)CCCc1ccccc1)OCOC(=O)C(C)(C)C [JXW-168],IC50,[4]; [11],8.7 µM
CC(C)(C)C(=O)OCOP(=O)(/C=C/CN(O)C(=O)c1ccccc1)OCOC(=O)C(C)(C)C [JXW-189],IC50,[4]; [11],1.3 µM
O=CN(O)CCCP(=O)(O)O [fosmidomycin],IC50,[1],0.31 ± 0.04 µM
same,bacteriostatic or bactericidal in S. schleferi,[6],bacteriostatic
same,bacteriostatic or bactericidal in S. chromogenes,[7],bacteriostatic
same,IC50,[8],0.09 to 0.35 µM
same,bacteriostatic or bactericidal in S. pseudintermedius,[9],bacteriostatic
same,IC50,[3],0.67 ± 0.06 µM
same,IC50,[10],> 100 µM
same,IC50,[4],0.78 ± 0.13 µM
same,IC50,[5],0.31 ± 0.01 µM
